For data set [1], the system named is Mef2c-het mice. The note with it: mouse, in vivo. From the text: (§1) Mef2c heterozygous knockout (Mef2c-het) mice were created by crossing mice carrying the conventional exon 2-deleted allele of Mef2c (Mef2c^Δ2) with their WT littermates. All procedures for maintaining and using these mice were approved by the Institutional Animal Care and Use Committee (IACUC) at the Sanford Burnham Prebys Medical Discovery Institute. In this study, only male mice were used for the behavioral assays to insure uniformity (either with or without drug treatment). Chronic treatment with memantine, NitroSynapsin (both at 4.6 μmol/kg body weight) or vehicle (PBS) was administered via i.p. injection, twice a day for at least 3 months, starting at ˜2.5 weeks of age. This age was chosen because mice are still juveniles and thus treatment could begin in human at an equivalent stage. […]
For extracellular field recordings, concentric, bipolar tungsten electrodes were used to activate Schaffer collateral/commissural (SC) fibers in the hippocampal CA1 region. […] For baseline recordings, slices were stimulated at 0.033 Hz for 20 min at stimulation intensities of 30-40% of those used to elicit the largest measured fEPSP amplitude. […] Data were sampled at 5 kHz and analyzed using the Clampfit 10 program (Molecular Devices).
Synaptic activity was recorded from dentate gyrus (DG) granule neurons using the whole-cell voltage-clamp technique. […]

In data set [2] the test system is Mef2c-het mice. Description: Morris water maze (spatial learning and memory). In kind it is in vivo, mouse. From the text:
(§2) Mef2c heterozygous knockout (Mef2c-het) mice were created by crossing mice carrying the conventional exon 2-deleted allele of Mef2c (Mef2c^Δ2) with their WT littermates. All procedures for maintaining and using these mice were approved by the Institutional Animal Care and Use Committee (IACUC) at the Sanford Burnham Prebys Medical Discovery Institute. In this study, only male mice were used for the behavioral assays to insure uniformity (either with or without drug treatment). Chronic treatment with memantine, NitroSynapsin (both at 4.6 μmol/kg body weight) or vehicle (PBS) was administered via i.p. injection, twice a day for at least 3 months, starting at ˜2.5 weeks of age. This age was chosen because mice are still juveniles and thus treatment could begin in human at an equivalent stage.
We tested spatial reference learning and memory using a version of the conventional Morris water maze. The mice were trained to swim to a platform 14 cm in diameter and submerged 1.5 cm beneath the surface of the water. The platform was invisible to the mice while swimming. […] Mice were given 4 trials a day for as many days as necessary to reach the criterion (<20 s mean escape latency). Retention of spatial training was assessed 24 h after the last training trial. Both probe trials consisted of a 60-s free swim in the pool without the platform. The ANY-maze video tracking system (Stoelting Co.) was used to videotape all trials for automated analysis.

Data set [3] deals with Mef2c-het mice. In words: Motor behavioral tests and paw clasping. In kind it is in vivo, mouse. The following applies: 3-month treatment.
Excerpt: as §1, with “age.” for “age. This age was chosen because mice are still juveniles and thus treatment could begin in human at an equivalent stage.”
Balance was measured by the latency to fall off the elevated (40 cm) horizontal rod (50 cm long) in four 20 sec trials. […] Traction capacity was measured over three 5 s trials as the ability of the animal to raise the hind limbs while remaining suspended by the forepaws grasped around an elevated horizontal bar (2 mm diameter). […] Muscle Strength was determined by one trial of 60 s in which the mice were placed in the middle of the horizontal bar in an upside-down position and the latency until falling down was measured. […] The latency to turn downward and the total time to descend to the floor over 3 trials was recorded.

For data set [4], the system named is Mef2c-het mice. In words: Open field test (locomotor activity). The class given is in vivo, mouse. The following applies: chronic treatment, 30-minute test.
Excerpt: as §2
Locomotor activity was measured in polycarbonate cages (42×22×20 cm) placed into frames (25.5×47 cm) mounted with two levels of photocell beams at 2 and 7 cm above the bottom of the cage (San Diego Instruments, San Diego, Calif.). These two sets of beams allowed recording of both horizontal (locomotion) and vertical (rearing) behavior. A thin layer of bedding material was applied to the bottom of the cage. Mice were tested for 30 or 120 min depending on the exact test.

For data set [5], the system named is p38 MAPK/MAPKAPK2/TSC2/mTORC1/S6K1 cascade. In words: Western blots of eNMDAR-triggered signaling. In kind it is cell-based. The note with it: compared with Memantine. From the text: This experiment was replicated 4 times with similar results and quantified in FIG. 20C.

Entries after “also recorded” stand apart in the source; their conditions may differ.

Consider `CCC12CC3(N)CC(CC)(C1)CC(O[N+](=O)[O-])(C3)C2` [NitroSynapsin], for which the “effect on EPSCs in WT mice” value with Mef2c-het mice [1] is given as “no effects”. In addition, the “effect on LTP in WT mice” value in the data set with Mef2c-het mice [1] is reported as “no effects”. Moreover, the “latency of finding hidden platform during training sessions” value with Mef2c-het mice [2] (Mef2c-het mice, 4.6 μmol/kg i.p. twice a day, 3 months) is given as “improved performance relative to vehicle”. The “probe test, time in target vs opposite quadrant (memory retention)” value in the data set on Mef2c-het mice [2] (Mef2c-het mice, 4.6 μmol/kg i.p. twice a day, 3 months, 24 h after last training) is on record as “normalized memory function; also recorded: rescued this effect”. Further, in the data set on Mef2c-het mice [2] (WT mice, 3-month treatment), the “effect on Morris water maze in WT mice” value is recorded as “no effects”. The paw clasping result in the data set on Mef2c-het mice [3] is recorded as “did not improve the paw clasping phenotype; also recorded: not rescued”. Also, in the data set with Mef2c-het mice [4], the “open field center time / center activity” value is listed as “rescued by chronic treatment with NitroSynapsin; also recorded: rescued by treatment with N”. For the same compound, the results for the “eNMDAR-triggered signaling that inactivates TSC2 (p38 MAPK-TSC-Rheb-mTORC1-S6K1 pathway)” value in data set [5] and in data set [5] (listed as NitroMemantine) were “correction of activity” and “to a greater degree than Memantine”, respectively.

(Values after patent publication US11529319B2, “Methods and compositions for treating neurological conditions” (priority 2017, dated 2022).)
